Experimental data as given in EPA's ToxValDB 9.5 (doi:10.2903/j.efsa.2009.213r).
≈ marks a conversion by molar mass, not a printed value.

Key:
[1] = system: Typhlodromus pyri; assay: LR50; higher = less toxic; settings: not reported; mortality
[2] = system: Aphidius rhopalosiphi; assay: LR50; higher = less toxic; settings: not reported; mortality
[3] = system: Oryctolagus sp.; settings: developmental; development
[4] = system: Anas platyrhynchos; settings: oral, mortality
[5] = system: Canidae; settings: acute; oral; Dog Other; mortality
[6] = system: Oncorhynchus mykiss; settings: mortality
[7] = system: Tagia sp.; settings: acute; mortality
[8] = system: Colinus virginianus
[9] = system: Pleurozium sp.; settings: acute; duration: 72 hours; biomass
[10] = system: Rattus norvegicus; settings: for NOAEL: histopathology: nonneoplastic
[11] = system: Daphnia magna; settings: chronic/long-term; duration: 21 days; reproduction
[12] = system: Apis mellifera; settings: acute, duration: 48 hours, mortality
[13] = system: Mus musculus; settings: chronic; duration: 2 years; histopathology: nonneoplastic

Molecule `CCOc1ccc(C(C)(C)COCc2cccc(Oc3ccccc3)c2)cc1` [Etofenprox] has an LR50 [1] of 0.7 g/ha, an LR50 [2] of 0.42 g/ha and an NOAEL [3] of 100 mg/kg-day. For the same molecule, the LD50 ([4]; acute, unspecified) was greater than 2000 mg/kg, the LC50 ([4]; short-term, feed) was greater than 1280 mg/kg-day and the LD50 [5] was greater than 5000 mg/kg. For the same molecule, the LC50 ([6]; acute, duration: 96 hours) was 2.7 ng/mL (≈ 7.17 nM), the NOEC ([6]; chronic/long-term, duration: 21 days) was 0.0021 mg/L and the LC50 [7] was greater than 47.2 mg/kg. The LC50 ([8]; acute, oral, diet, mortality) was greater than 806 mg/kg-day, the NOEL ([8]; reproduction developmental) was 89.6 mg/kg-day and the NOEC [9] was 0.15 mg/L. It also gave an LD50 ([10]; acute, oral, mortality) greater than 2000 mg/kg, an NOAEL ([10]; chronic, duration: 2 years) of 3.7 mg/kg-day and an NOAEL ([10]; subchronic, duration: 13 weeks, oral, diet) of 20 mg/kg-day. For the same molecule, the NOEC [11] was 5.4e-05 mg/L, the LD50 ([12]; dermal) was 0.015 µg/piece and the LD50 ([12]; oral, unspecified) was 0.024 µg/piece. For the same molecule, the NOAEL [13] was 3.1 mg/kg-day.
